Test: in vitro
Conditions: human, hela cells, % viability

| SMILES | viability at 28.5 h, 10 µM [%] |
| --- | --- |
| CN1CCC(N2CCN(C(=O)NCc3cccnc3)CC2)CC1 [CBK155889] | 89.2 |
| Cc1cccc(N2C(=O)SC(N(CC(=O)O)c3cccc(C)c3)C2=O)c1 (centres unmarked) [CBK287095] | 87.6 |
| Cc1cc(C(=O)Nc2ccccc2C(=O)O)ccc1NC(=O)CC(C)C [CBK263616] | 101 |
| Cn1cc(CC(=O)NCc2ccc(OC3CCNCC3)cc2)c2ccccc21 [CBK028430T] | 92.8 |
| O=C(NC(=S)Nc1sc2c(c1C(=O)O)CCCC2)c1ccccc1 [CBK263695] | 98.1 |
| CCCC1CCN(c2ncnc(Oc3ccc(C(=O)c4ccc(F)cc4)cc3)c2[N+](=O)[O-])CC1 [CBK116495] | 85 |
| Cc1nnc2ncc(-c3ccccc3C(=O)N(C(C)C)C(C)C)cn12 [CBK307393] | 94.7 |
| O=C1NC2=C(C(=O)N(CC3CCCO3)C2)C(c2ccccc2)N1 (centres unmarked) [CBK283494] | 100 |
| Cc1cccc(OCCSc2nc3c(N)ncn(Cc4ccccc4)c-3n2)c1 [CBK266843] | 84.1 |
| Cc1cc(COc2nc3ccccc3nc2NCCC2=CCCCC2)no1 [CBK173982] | 115 |
| NS(=O)(=O)c1ccc(CNC(=O)c2cc(-c3ccncc3)nc3ccc(Cl)cc23)cc1 [CBK267770] | 101 |
| COc1cc(C2NC(=S)NC(c3ccccc3)=C2C(=O)c2ccccc2)cc(I)c1OCCO (centres unmarked) [CBK267485] | 86.7 |
| COc1cccc(Nc2nnc(-c3cc4cc(OC)ccc4oc3=O)s2)c1 [CBK264432] | 94.1 |
| O=C1COc2ccccc2C/C=C/CC2(CCN(CC(=O)N3CCCC3)CC2)CN1 [CBK292126] | 93.7 |
| COc1ccc(NC(=O)CC2NC3CCCCC3NC2=O)cc1 (centres unmarked) [CBK266488] | 89.7 |
| CC(C)(C)CC(C)(C)Nc1nc(N)nc(N)n1 [CBK022832] | 101 |
| O=C(N[C@H]1CC[C@H](O)CC1)C1(Cc2cc(-c3ccc(F)cc3F)no2)CCOCC1 [CBK286352] | 94.9 |
| O=C(NC(N1CCCCC1)C(Cl)(Cl)Cl)NC(N1CCCCC1)C(Cl)(Cl)Cl (centres unmarked) [CBK261020] | 98.2 |
| COCCCNC(=O)CN1CCCCC1Cn1nc(C)cc1C (centres unmarked) [CBK304009] | 104 |
| CCC(CC)C(=O)Nc1nc(OC)cnc1-c1cc(Cl)cc(Cl)c1 [CBK145338] | 95.8 |
| CCOC(=O)C1CCN(Cc2cccs2)CC1 [CBK026999] | 86.3 |
| O=C1COc2ccccc2C/C=C/C[C@H]2CNCC[C@H]2N1 [CBK292033] | 101 |

| SMILES | viability at 28.5 h, 10 µM [%] |
| --- | --- |
| CC1(C)CC(=O)c2sc(NC(=O)C3COc4ccccc4O3)nc2C1 (centres unmarked) [CBK144104] | 112 |
| O=C(NC(c1ccccc1)c1ccco1)C1CCN(CCc2c[nH]c3ccccc23)CC1 (centres unmarked) [CBK148290] | 100 |
| CCC(C)c1ccc(NC(=S)NCCn2cc(Cl)cn2)cc1 (centres unmarked) [CBK267101] | 90.7 |
| Cc1ccccc1OCCCn1cncc1-c1cn(C)nc1C [CBK281813] | 85.1 |
| c1ccc2oc(-c3cncc(NCCCN4CCOCC4)n3)cc2c1 [CBK066045] | 92.9 |
| CCOC(=O)c1sc2nc(C)ccc2c1N [CBK115377] | 96.5 |
| O=C(CN1CCCCC1)Nc1c(-c2ccccc2)c2cc(Br)ccc2[nH]c1=O [CBK263351] | 94.7 |
| OCCN1CCN(c2nc3ccccc3nc2-c2ccccc2)CC1 [CBK268799C] | 111 |
| COc1cc(-c2nc3ccccn3c2/N=C/c2ccc(-c3ccc([N+](=O)[O-])cc3)o2)ccc1O [CBK262288] | 79.8 |
| COc1cccc(C2SCC(=O)Nc3[nH]nc(C)c32)c1 (centres unmarked) [CBK287981] | 78.2 |
| O=c1cc(N2CCN(CC3CCOC3)CC2)c(-c2ccccc2)n[nH]1 (centres unmarked) [CBK306957] | 91.5 |
| COc1ccc(C)cc1NC(=O)C1CC(=O)Nc2ncnn21 (centres unmarked) [CBK270274] | 99.5 |
| Cc1ccc(-c2ccc(N3CCCC(C(=O)O)C3)nn2)cc1C (centres unmarked) [CBK300513] | 95.8 |
| Cc1cc(C)c2c(n1)nn1c(C)c(CCC(=O)O)c(C)nc21 [CBK265892] | 98.2 |
| O=C(CCn1c(-c2ccccn2)cc2cccnc21)NC1CCCC1 [CBK284965] | 98.3 |
| Cc1ccnn1CCNC(=O)C(C)Cc1cccs1 (centres unmarked) [CBK281633] | 109 |
| O=C(NC1CCCCC1)O[C@@H]1CO[C@H]2[C@@H]1OC[C@@H]2Nc1nccc(-c2cccs2)n1 [CBK289514] | 87.4 |
| CC(=O)N1CCN(C(=O)NC(C)C)C[C@@H]1C(=O)N[C@@H](CC1CCCCC1)C(N)=O [CBK289633] | 91.8 |
| COc1ccc(NC(=O)CC2NC(=O)NC2=O)cc1 (centres unmarked) [CBK267279] | 86.5 |
| COc1ncc(-c2nccnc2NCc2cccc([N+](=O)[O-])c2)c(OC)n1 [CBK036680] | 97.7 |
| COc1ccc(C(=O)Nc2cc(C)c3c(=O)oc4ccccc4c3n2)cc1OC [CBK287442] | 89 |
| CC(C)[C@H](NC(=O)c1cc2cc(Cl)ccc2n1C)C(=O)N1CCC(C(=O)O)CC1 [CBK286771] | 107 |

From article PMC12040169 (PLOS Biology, 2025)
